From the NIST ThermoML archive (doi:10.1016/j.tca.2012.08.011)

Test: xn = mol fraction of the nth substance listed
Details: 101 kPa, Liquid; for speed of sound: Linear variable-path acoustic interferometer; for mass density: Vibrating tube method

NC1CCCCC1 [cyclohexylamine] + C1CCCCC1
Details	mass density [kg/m3]	speed of sound [m/s]
293.15 K, x1 = 0.0545	782.87	1282.7
293.15 K, x1 = 0.1032	786.84	1287.2
293.15 K, x1 = 0.1514	790.9	1291.9
293.15 K, x1 = 0.204	795.42	1298
293.15 K, x1 = 0.2496	799.41	1303.5
293.15 K, x1 = 0.3052	804.34	1310.7
293.15 K, x1 = 0.3467	808.08	1316.6
293.15 K, x1 = 0.3967	812.57	1323.8
293.15 K, x1 = 0.4025	813.08	1324.5
293.15 K, x1 = 0.4478	817.22	1331.2
293.15 K, x1 = 0.4992	821.91	1339.2
293.15 K, x1 = 0.5538	826.9	1348.3
293.15 K, x1 = 0.6495	835.66	1364.5
293.15 K, x1 = 0.6996	840.25	1373.5
293.15 K, x1 = 0.7535	845.15	1383.2
293.15 K, x1 = 0.8071	850.03	1393
293.15 K, x1 = 0.8555	854.41	1402.2
293.15 K, x1 = 0.8959	858.06	1410.1
293.15 K, x1 = 0.9501	862.93	1420.6
293.15 K, x1 = 1	867.39	1430.5
298.15 K, x1 = 0.0545	778.17	1257.9
298.15 K, x1 = 0.1032	782.14	1262.6
298.15 K, x1 = 0.1514	786.2	1267.6
298.15 K, x1 = 0.204	790.73	1273.8
298.15 K, x1 = 0.2496	794.7	1279.4
298.15 K, x1 = 0.3052	799.64	1286.8
298.15 K, x1 = 0.3467	803.36	1293
298.15 K, x1 = 0.3967	807.88	1300.2
298.15 K, x1 = 0.4025	808.4	1300.9
298.15 K, x1 = 0.4478	812.54	1307.8
298.15 K, x1 = 0.4992	817.25	1315.9
298.15 K, x1 = 0.5538	822.24	1325
298.15 K, x1 = 0.6495	831.02	1341.3
298.15 K, x1 = 0.6996	835.61	1350.4
298.15 K, x1 = 0.7535	840.54	1360.5
298.15 K, x1 = 0.8071	845.43	1370.4
298.15 K, x1 = 0.8555	849.81	1379.6
298.15 K, x1 = 0.8959	853.48	1387.7
298.15 K, x1 = 0.9501	858.37	1398.5
298.15 K, x1 = 1	862.85	1408.8
303.15 K, x1 = 0.0545	773.44	1233.6
303.15 K, x1 = 0.1032	777.42	1238.1
303.15 K, x1 = 0.1514	781.48	1243.5
303.15 K, x1 = 0.204	786.03	1249.7
303.15 K, x1 = 0.2496	790.01	1255.4
303.15 K, x1 = 0.3052	794.94	1263.2
303.15 K, x1 = 0.3467	798.67	1269
303.15 K, x1 = 0.3967	803.19	1276.7
303.15 K, x1 = 0.4025	803.71	1277.4
303.15 K, x1 = 0.4478	807.85	1284.4
303.15 K, x1 = 0.4992	812.59	1292.7
303.15 K, x1 = 0.5538	817.57	1301.8
303.15 K, x1 = 0.6495	826.37	1318.5
303.15 K, x1 = 0.6996	830.97	1327.6
303.15 K, x1 = 0.7535	835.93	1337.7
303.15 K, x1 = 0.8071	840.82	1347.9
303.15 K, x1 = 0.8555	845.22	1357.2
303.15 K, x1 = 0.8959	848.9	1365.3
303.15 K, x1 = 0.9501	853.81	1376.5
303.15 K, x1 = 1	858.31	1387.3
308.15 K, x1 = 0.0545	768.69	1209.3
308.15 K, x1 = 0.1032	772.67	1213.9
308.15 K, x1 = 0.1514	776.74	1219.6
308.15 K, x1 = 0.204	781.3	1225.8
308.15 K, x1 = 0.2496	785.28	1231.6
308.15 K, x1 = 0.3052	790.22	1239.7
308.15 K, x1 = 0.3467	793.96	1245.6
308.15 K, x1 = 0.3967	798.48	1253.5
308.15 K, x1 = 0.4025	799.01	1254.4
308.15 K, x1 = 0.4478	803.16	1261.5
308.15 K, x1 = 0.4992	807.91	1269.9
308.15 K, x1 = 0.5538	812.89	1279
308.15 K, x1 = 0.6495	821.73	1295.7
308.15 K, x1 = 0.6996	826.34	1305
308.15 K, x1 = 0.7535	831.31	1315.5
308.15 K, x1 = 0.8071	836.22	1325.6
308.15 K, x1 = 0.8555	840.63	1334.9
308.15 K, x1 = 0.8959	844.32	1343.1
308.15 K, x1 = 0.9501	849.24	1354.7
308.15 K, x1 = 1	853.76	1366
313.15 K, x1 = 0.0545	763.91	1185.5
313.15 K, x1 = 0.1032	767.89	1189.8
313.15 K, x1 = 0.1514	771.98	1195.5
313.15 K, x1 = 0.204	776.54	1202
313.15 K, x1 = 0.2496	780.53	1207.9
313.15 K, x1 = 0.3052	785.49	1216.3
313.15 K, x1 = 0.3467	789.24	1222.2
313.15 K, x1 = 0.3967	793.77	1230.3
313.15 K, x1 = 0.4025	794.29	1231
313.15 K, x1 = 0.4478	798.45	1238.5
313.15 K, x1 = 0.4992	803.21	1247
313.15 K, x1 = 0.5538	808.21	1256.3
313.15 K, x1 = 0.6495	817.07	1273.3
313.15 K, x1 = 0.6996	821.7	1282.6
313.15 K, x1 = 0.7535	826.67	1292.9
313.15 K, x1 = 0.8071	831.61	1303.4
313.15 K, x1 = 0.8555	836.02	1312.8
313.15 K, x1 = 0.8959	839.74	1321.1
313.15 K, x1 = 0.9501	844.68	1332.8
313.15 K, x1 = 1	849.23	1344.5
318.15 K, x1 = 0.0545	759.09	1162.1
318.15 K, x1 = 0.1032	763.09	1166.2
318.15 K, x1 = 0.1514	767.19	1171.9
318.15 K, x1 = 0.204	771.77	1178.7
318.15 K, x1 = 0.2496	775.77	1184.7
318.15 K, x1 = 0.3052	780.74	1193.1
318.15 K, x1 = 0.3467	784.5	1199.2
318.15 K, x1 = 0.3967	789.02	1207.3
318.15 K, x1 = 0.4025	789.56	1208.2
318.15 K, x1 = 0.4478	793.71	1215.8
318.15 K, x1 = 0.4992	798.49	1224.5
318.15 K, x1 = 0.5538	803.51	1233.9
318.15 K, x1 = 0.6495	812.4	1251.1
318.15 K, x1 = 0.6996	817.05	1260.4
318.15 K, x1 = 0.7535	822.04	1270.9
318.15 K, x1 = 0.8071	827	1281.5
318.15 K, x1 = 0.8555	831.42	1290.9
318.15 K, x1 = 0.8959	835.15	1299.2
318.15 K, x1 = 0.9501	840.12	1311.1
318.15 K, x1 = 1	844.68	1323.1
323.15 K, x1 = 0.0545	754.26	1138.5
323.15 K, x1 = 0.1032	758.27	1142.7
323.15 K, x1 = 0.1514	762.37	1148.4
323.15 K, x1 = 0.204	766.97	1155.2
323.15 K, x1 = 0.2496	770.99	1161.4
323.15 K, x1 = 0.3052	775.97	1169.9
323.15 K, x1 = 0.3467	779.75	1176.2
323.15 K, x1 = 0.3967	784.29	1184.5
323.15 K, x1 = 0.4025	784.82	1185.4
323.15 K, x1 = 0.4478	788.97	1193.2
323.15 K, x1 = 0.4992	793.75	1202
323.15 K, x1 = 0.5538	798.79	1211.6
323.15 K, x1 = 0.6495	807.72	1228.8
323.15 K, x1 = 0.6996	812.4	1238.3
323.15 K, x1 = 0.7535	817.4	1248.9
323.15 K, x1 = 0.8071	822.37	1259.4
323.15 K, x1 = 0.8555	826.82	1269.2
323.15 K, x1 = 0.8959	830.56	1277.6
323.15 K, x1 = 0.9501	835.56	1289.6
323.15 K, x1 = 1	840.14	1301.8
